The source of these data is patent US5147876A, “2,6-di,2,4,6-, 2,5,6-tri and 2,4,5,6-tetra-substituted pyrimidines, their pharmaceutically acceptable salts, pharmaceutical compositions containing same and their use in the treatment of neurological diseases” (Mitsui Petrochemical Industries, Ltd., priority 1988, dated 1992).

Data set [1] concerns neuro-2a (mouse neuroblastoma cells). As to the kind of experiment: Action on neuro-2a: proportion of cells containing outgrown neurites. The class given is cell-based. To be noted: mean ± S.D. A digest of the protocol: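 Mouse neuro-2a cells at 1,000 cells/well in DMEM with 10% FCS were cultured one day at 37 °C, 5% CO2, then glutaraldehyde-fixed and methylene-blue-stained. The proportion of cells bearing a neurite at least twice the cell's long diameter was counted over >200 cells; up to 6 concentrations, triplicate runs.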

A short description of the next data set: Acute toxicity on mice. In kind it is in vivo. To be noted: mouse, in vivo, ip, 24 hours after administration; read-out: Estimated LD50. On the procedure: The acute toxicity of the compounds of the invention was examined by the following method.
Male ddy-strain 5-week old mice, 4-6- per group, were used as experimental animals. Each of the compounds was intraperitoneally (i.p.), and the toxicity of the compound was assessed 24 hours after the administration.

Bounds are passed on as bounds.

Usually LD50 stands for the dose at which mortality reaches 50%. Turning to `CC1CCCN(c2nccc(N(C)C(=O)c3ccccc3)n2)C1` (stereo not drawn) [Compound 138], the “Number of cells having neurites with a length at least two times the diameter of each cell/total number of cells” value (shortened to “Number … of each cell/total number of cells”) came out at 6.3 ± 1.8% in data set [1] (0.03 mM) and 12.6 ± 4.1% in data set [1] (0.1 mM). Further, in the data set “Acute toxicity on mice”, the LD50 at 24 h was above 1000 mg/kg.
In the case of `CCCC1CCN(c2nccc(N(C)C(=O)c3ccccc3)n2)CC1` [Compound 146], the “Number … of each cell/total number of cells” value is 8.7 ± 2.0% in data set [1] (0.03 mM) and 40.0 ± 6.1% in data set [1] (0.1 mM). Moreover, the 50% lethal dose (LD50) at 24 h in “Acute toxicity on mice” is above 1000 mg/kg.
The matching figures for `CC(C)C1CCN(c2nccc(N(C)C(=O)c3ccccc3)n2)CC1` [Compound 147-1]: 6.6 ± 0.4%, 30.5 ± 6.1% and above 1000 mg/kg.
In the case of `CC1CCCCN1c1nccc(N(C)C(=O)c2ccccc2)n1` (stereo not drawn) [Compound 154], the “Number … of each cell/total number of cells” value in data set [1] (0.03 mM) was 5.2 ± 1.5%; in data set [1] (0.1 mM), 16.2 ± 2.1%. Besides, the LD50 at 24 h in “Acute toxicity on mice” is above 1000 mg/kg.
For `CCOc1ccc(C(=O)N(C)c2ccnc(N3CCC(c4ccccc4)CC3)n2)cc1` [Compound 171-5], the “Number … of each cell/total number of cells” value in data set [1] (0.01 mM) is recorded as 7.2 ± 1.1%; in data set [1] (0.1 mM), 28.4 ± 2.2%; in data set [1] (0.3 mM), 32.7 ± 0.6%; in data set [1] (1 mM) it was 14.0 ± 4.1%. Also, the median lethal dose (LD50) at 24 h in the data set “Acute toxicity on mice” is above 1000 mg/kg.
On to `CC(=O)N(C)c1ccnc(N2CCc3ccccc3C2)n1` [Compound 312], for which the figures for the “Number … of each cell/total number of cells” value in data set [1] (0.03 mM) and in data set [1] (0.1 mM) were 4.5 ± 0.4% and 9.7 ± 0.9%, respectively. Also, the 50% lethal dose (LD50) at 24 h in “Acute toxicity on mice” is above 1000 mg/kg.
As to `CN1CCN(c2nccc(N(C)C(=O)c3ccccc3)n2)CC1` [Compound 352], the “Number … of each cell/total number of cells” value was found to be 3.2 ± 1.9% in data set [1] (0.1 mM) and 9.9 ± 1.6% in data set [1] (0.3 mM). Also, the LD50 at 24 h in “Acute toxicity on mice” was 500 to 1000 mg/kg.
The matching figures for `Cc1cnc(N2CCCCC2)nc1N(C)C(=O)c1ccccc1` [Compound 408]: 9.1 ± 1.8%, 9.6 ± 3.9% and 500 to 1000 mg/kg.
With `CCCN(C(=O)c1ccccc1)c1nccc(N2CCC(c3ccccc3)CC2)n1` [Compound 644], the “Number … of each cell/total number of cells” value in data set [1] (0.03 mM) stood at 26.1 ± 7.3%; in data set [1] (0.1 mM), 14.7 ± 7.3%. Moreover, in “Acute toxicity on mice”, the LD50 at 24 h is above 1000 mg/kg.
As for `CNc1nc(C)cc(N2CCC(c3ccccc3)CC2)n1` [Compound 1158], the “Number … of each cell/total number of cells” value in data set [1] (0.03 mM) amounted to 9.9 ± 1.4%; in data set [1] (0.1 mM), 18.4 ± 3.0%; in data set [1] (0.3 mM) it was 22.1 ± 6.7%; in data set [1] (1 mM), 19.1 ± 2.7%. In the data set “Acute toxicity on mice”, the median lethal dose (LD50) at 24 h was below 250 mg/kg.
As for `CC1CC(C)CN(c2nccc(N(C)C(=O)c3ccccc3)n2)C1` (stereo not drawn) [Compound 2004], the “Number … of each cell/total number of cells” value in data set [1] (0.03 mM) is listed as 6.6 ± 2.2%; in data set [1] (0.1 mM), 30.2 ± 6.4%. In addition, the 50% lethal dose (LD50) at 24 h in “Acute toxicity on mice” is above 1000 mg/kg.
With `CN(C(=O)c1ccccc1)c1ccnc(N2CCC(C)(C)CC2)n1` [Compound 2116], the “Number … of each cell/total number of cells” value in data set [1] (0.1 mM) is recorded as 34.2 ± 3.8%; in data set [1] (0.3 mM) it was 8.2 ± 3.6%. Further, in “Acute toxicity on mice”, the median lethal dose (LD50) at 24 h is 500 to 1000 mg/kg.
For `CN(C(=O)c1cccnc1)c1ccnc(N2CCC(c3ccccc3)CC2)n1` [Compound 2140], the results for the “Number … of each cell/total number of cells” value in data set [1] (0.03 mM) and in data set [1] (0.1 mM) were 5.4 ± 3.9% and 17.0 ± 1.2%, respectively. Also, the LD50 at 24 h in the data set “Acute toxicity on mice” is above 1000 mg/kg.
The matching figures for `CN(C(=O)c1ccccc1)c1ccnc(N2CCCC3CCCCC32)n1` (stereo not drawn) [Compound 2156]: 8.6 ± 1.0%, 19.6 ± 5.3% and above 1000 mg/kg.
As to `CN(C(=O)c1ccccc1)c1ccnc(N2CCC(CO)CC2)n1` [Compound 2164], the “Number … of each cell/total number of cells” value in data set [1] (0.1 mM) was 4.6 ± 1.1%; in data set [1] (1 mM), 11.7 ± 0.7%. Also, in “Acute toxicity on mice”, the LD50 at 24 h is above 1000 mg/kg.
For `CN(C(=O)c1ccc(N)cc1)c1ccnc(N2CCC(c3ccccc3)CC2)n1` [Compound 2182], the “Number … of each cell/total number of cells” value was 8.0 ± 3.2% in data set [1] (0.03 mM) and 2.7 ± 0.9% in data set [1] (0.1 mM). Further, in “Acute toxicity on mice”, the median lethal dose (LD50) at 24 h was 500 to 1000 mg/kg.
The matching figures for `CN(C(=O)N1CCCCC1)c1ccnc(N2CCC(c3ccccc3)CC2)n1` [Compound 2210]: 9.5 ± 2.0%, 9.5 ± 1.9% and 500 to 1000 mg/kg.
The like results for `CN(C(=O)Nc1ccccc1)c1ccnc(N2CCC(c3ccccc3)CC2)n1` [Compound 2218] were, in that order, 9.7 ± 1.8%, 11.4 ± 6.1% and 500 to 1000 mg/kg.
For `CCOC(=O)N(C)c1ccnc(N2CCC(c3ccccc3)CC2)n1` [Compound 2242], the entries for the “Number … of each cell/total number of cells” value in data set [1] (0.03 mM) and in data set [1] (0.1 mM) were 3.3 ± 0.9% and 24.8 ± 2.9%, respectively. Besides, the LD50 at 24 h in “Acute toxicity on mice” is 500 to 1000 mg/kg.
With `CN(C(=O)Cc1ccccc1)c1ccnc(N2CCC(c3ccccc3)CC2)n1` [Compound 2250], the “Number … of each cell/total number of cells” value in data set [1] (0.1 mM) was found to be 10.9 ± 3.9%; in data set [1] (0.3 mM) it was 19.2 ± 1.0%. Moreover, in “Acute toxicity on mice”, the 50% lethal dose (LD50) at 24 h is 500 to 1000 mg/kg.
In the case of `CN(Cc1ccccc1)c1ccnc(N2CCC(c3ccccc3)CC2)n1` [Compound 2278], the results for the “Number … of each cell/total number of cells” value in data set [1] (0.03 mM) and in data set [1] (0.1 mM) were 13.9 ± 6.3% and 12.5 ± 1.3%, respectively. Besides, in “Acute toxicity on mice”, the 50% lethal dose (LD50) at 24 h is 500 to 1000 mg/kg.
In the case of `CCN(CC)C(=O)N(C)c1ccnc(N2CCC(c3ccccc3)CC2)n1` [Compound 2302], the “Number … of each cell/total number of cells” value amounted to 8.0 ± 2.7% in data set [1] (0.03 mM) and 8.2 ± 4.7% in data set [1] (0.1 mM). For the same compound, the 50% lethal dose (LD50) at 24 h in the data set “Acute toxicity on mice” is 500 to 1000 mg/kg.
In the case of `CN(C(=O)c1ccccc1)c1ccnc(N2CCC(C(=O)c3ccc(Cl)cc3)CC2)n1` [Compound 2310], the “Number … of each cell/total number of cells” value in data set [1] (0.1 mM) is 8.3 ± 1.8%; in data set [1] (0.3 mM) it was 12.1 ± 3.6%. The median lethal dose (LD50) at 24 h in “Acute toxicity on mice” was 500 to 1000 mg/kg.
`CON(C(=O)c1ccccc1)c1ccnc(N2CCC(c3ccccc3)CC2)n1` [Compound 2318]: the “Number … of each cell/total number of cells” value is 7.7 ± 1.4% in data set [1] (0.03 mM), 35.1 ± 1.3% in data set [1] (0.1 mM), 18.6 ± 5.2% in data set [1] (0.3 mM) and 8.8 ± 1.3% in data set [1] (1 mM). Also, in the data set “Acute toxicity on mice”, the LD50 at 24 h is 500 to 1000 mg/kg.
Consider `CN(C(=O)N1CCOCC1)c1ccnc(N2CCC(c3ccccc3)CC2)n1` [Compound 2326], for which the “Number … of each cell/total number of cells” value in data set [1] (0.03 mM) amounted to 4.6 ± 1.4%; in data set [1] (0.1 mM) it was 8.3 ± 2.6%. Besides, in “Acute toxicity on mice”, the LD50 at 24 h was 500 to 1000 mg/kg.
Consider `CN(C(=O)Oc1ccccc1)c1ccnc(N2CCC(c3ccccc3)CC2)n1` [Compound 2334], for which the “Number … of each cell/total number of cells” value in data set [1] (0.03 mM) amounted to 13.2 ± 0.2%; in data set [1] (0.1 mM), 16.7 ± 0.8%. Further, the median lethal dose (LD50) at 24 h in the data set “Acute toxicity on mice” was above 1000 mg/kg.
With `CN(C(=O)c1ccccc1)c1ccnc(NC2CN3CCC2CC3)n1` (stereo not drawn) [Compound 2342], the “Number … of each cell/total number of cells” value in data set [1] (0.03 mM) came out at 5.9 ± 2.1%; in data set [1] (0.1 mM), 11.4 ± 1.4%. In addition, the 50% lethal dose (LD50) at 24 h in “Acute toxicity on mice” is 500 to 1000 mg/kg.
Regarding `CN(C(=O)c1ccccc1)c1ccnc(N2CCC(OS(=O)(=O)c3ccccc3)CC2)n1` [Compound 2350], the “Number … of each cell/total number of cells” value in data set [1] (0.3 mM) is reported as 5.9 ± 1.5%; in data set [1] (1 mM) it was 8.3 ± 2.0%. The LD50 at 24 h in “Acute toxicity on mice” was 500 to 1000 mg/kg.
